In PubChem BioAssay (NCI):
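Grown in 96-well plates, cells were treated for 48 hours with each compound at five concentrations. Insufficient inhibition: endpoint recorded as highest concentration tested. Definition used: TGI = concentration required for complete inhibition of growth.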

Assays:
Assay in all cases: NCI-60 cell line screen, 48 h
786-0 renal = system: 786-0 renal
A498 renal = system: A498 renal
A549 NSCLC = system: A549 NSCLC
ACHN renal = system: ACHN renal
BT-549 breast = system: BT-549 breast
CAKI-1 renal = system: CAKI-1 renal
CCRF-CEM leukemia = system: CCRF-CEM leukemia
COLO 205 colon = system: COLO 205 colon
DU-145 prostate = system: DU-145 prostate
EKVX NSCLC = system: EKVX NSCLC
HCT-116 colon = system: HCT-116 colon
HCT-15 colon = system: HCT-15 colon
HL-60(TB) leukemia = system: HL-60(TB) leukemia
HOP-62 NSCLC = system: HOP-62 NSCLC
HOP-92 NSCLC = system: HOP-92 NSCLC
HS 578T breast = system: HS 578T breast
HT29 colon = system: HT29 colon
IGROV1 ovarian = system: IGROV1 ovarian
K-562 leukemia = system: K-562 leukemia
KM12 colon = system: KM12 colon
LOX IMVI melanoma = system: LOX IMVI melanoma
M14 melanoma = system: M14 melanoma
MALME-3M melanoma = system: MALME-3M melanoma
MCF7 breast = system: MCF7 breast
MDA-MB-231 breast = system: MDA-MB-231 breast
MDA-MB-435 = system: MDA-MB-435
MDA-N = system: MDA-N
MOLT-4 leukemia = system: MOLT-4 leukemia
NCI-H226 lung = system: NCI-H226 lung
NCI-H23 lung = system: NCI-H23 lung
NCI-H460 lung = system: NCI-H460 lung
NCI-H522 lung = system: NCI-H522 lung
NCI/ADR-RES ovarian = system: NCI/ADR-RES ovarian
OVCAR-3 ovarian = system: OVCAR-3 ovarian
OVCAR-4 ovarian = system: OVCAR-4 ovarian
OVCAR-5 ovarian = system: OVCAR-5 ovarian
OVCAR-8 ovarian = system: OVCAR-8 ovarian
PC-3 prostate = system: PC-3 prostate
RPMI-8226 leukemia = system: RPMI-8226 leukemia
RXF 393 renal = system: RXF 393 renal
SF-268 CNS = system: SF-268 CNS
SF-295 CNS = system: SF-295 CNS
SF-539 CNS = system: SF-539 CNS
SK-MEL-2 melanoma = system: SK-MEL-2 melanoma
SK-MEL-28 melanoma = system: SK-MEL-28 melanoma
SK-MEL-5 melanoma = system: SK-MEL-5 melanoma
SK-OV-3 ovarian = system: SK-OV-3 ovarian
SN12C renal = system: SN12C renal
SNB-19 CNS = system: SNB-19 CNS
SR leukemia = system: SR leukemia
SW-620 colon = system: SW-620 colon
T-47D breast = system: T-47D breast
TK-10 renal = system: TK-10 renal
U251 CNS = system: U251 CNS
UACC-257 melanoma = system: UACC-257 melanoma
UACC-62 melanoma = system: UACC-62 melanoma
UO-31 renal = system: UO-31 renal
DLD-1 colon = system: DLD-1 colon
HOP-18 NSCLC = system: HOP-18 NSCLC
LXFL 529 NSCLC = system: LXFL 529 NSCLC
M19-MEL melanoma = system: M19-MEL melanoma

Compound: Cc1cc(C)c2c(=O)n(CN3CC4Nc5ccccc5C4C3)sc2n1 (stereo not drawn)
- TGI (786-0 renal): 33.8 µM
- TGI (A498 renal): > 100 µM
- TGI (A549 NSCLC): > 100 µM
- TGI (ACHN renal): 33.8 µM
- TGI (BT-549 breast): > 100 µM
- TGI (CAKI-1 renal): 57.6 µM
- TGI (CCRF-CEM leukemia): > 100 µM
- TGI (COLO 205 colon): 71.5 µM
- TGI (DU-145 prostate): 40.9 µM
- TGI (EKVX NSCLC): 88.5 µM
- TGI (HCT-116 colon): 43.7 µM
- TGI (HCT-15 colon): 44.3 µM
- TGI (HL-60(TB) leukemia): 63.2 µM
- TGI (HOP-62 NSCLC): > 100 µM
- TGI (HOP-92 NSCLC): > 100 µM
- TGI (HS 578T breast): > 100 µM
- TGI (HT29 colon): 46.1 µM
- TGI (IGROV1 ovarian): > 100 µM
- TGI (K-562 leukemia): 92.7 µM
- TGI (KM12 colon): > 100 µM
- TGI (LOX IMVI melanoma): 48.5 µM
- TGI (M14 melanoma): 63.1 µM
- TGI (MALME-3M melanoma): 27.8 µM
- TGI (MCF7 breast): > 100 µM
- TGI (MDA-MB-231 breast): 37.5 µM
- TGI (MDA-MB-435): 42.2 µM
- TGI (MDA-N): 44.3 µM
- TGI (MOLT-4 leukemia): 95.3 µM
- TGI (NCI-H226 lung): 81.1 µM
- TGI (NCI-H23 lung): 47.6 µM
- TGI (NCI-H460 lung): 46.2 µM
- TGI (NCI-H522 lung): 14.2 µM
- TGI (NCI/ADR-RES ovarian): > 100 µM
- TGI (OVCAR-3 ovarian): 98.5 µM
- TGI (OVCAR-4 ovarian): 42.2 µM
- TGI (OVCAR-5 ovarian): 42.4 µM
- TGI (OVCAR-8 ovarian): 52 µM
- TGI (PC-3 prostate): 50.6 µM
- TGI (RPMI-8226 leukemia): > 100 µM
- TGI (RXF 393 renal): 40.4 µM
- TGI (SF-268 CNS): 54.1 µM
- TGI (SF-295 CNS): > 100 µM
- TGI (SF-539 CNS): 39.8 µM
- TGI (SK-MEL-2 melanoma): 54.2 µM
- TGI (SK-MEL-28 melanoma): 82.3 µM
- TGI (SK-MEL-5 melanoma): > 100 µM
- TGI (SK-OV-3 ovarian): > 100 µM
- TGI (SN12C renal): > 100 µM
- TGI (SNB-19 CNS): > 100 µM
- TGI (SR leukemia): > 100 µM
- TGI (SW-620 colon): 63.7 µM
- TGI (T-47D breast): > 100 µM
- TGI (TK-10 renal): 35.8 µM
- TGI (U251 CNS): > 100 µM
- TGI (UACC-257 melanoma): 32.2 µM
- TGI (UACC-62 melanoma): 71.4 µM
- TGI (UO-31 renal): 32.5 µM

Compound: CCC(=O)OC[n+]1ccc2c(C)c3[nH]c4ccc(OC)cc4c3c(C)c2c1
- TGI (786-0 renal): 1.73 µM
- TGI (ACHN renal): 3.76 µM
- TGI (CCRF-CEM leukemia): > 100 µM
- TGI (DLD-1 colon): 1.26 µM
- TGI (HCT-116 colon): 1.13 µM
- TGI (HL-60(TB) leukemia): 8.38 µM
- TGI (HOP-18 NSCLC): 0.131 µM
- TGI (HT29 colon): 1.57 µM
- TGI (IGROV1 ovarian): 1.03 µM
- TGI (K-562 leukemia): 23.9 µM
- TGI (LXFL 529 NSCLC): 1.57 µM
- TGI (M19-MEL melanoma): 1.68 µM
- TGI (MALME-3M melanoma): 2.71 µM
- TGI (OVCAR-5 ovarian): 1.75 µM
- TGI (RPMI-8226 leukemia): 2.54 µM
- TGI (TK-10 renal): 2.92 µM
